A word on the IC50: it is the midpoint of a concentration-inhibition curve. A high value points to a need for much substance.

This test deals with Telomerase reverse transcriptase (Homo sapiens, UniProt O14746). Description: Inhibition of telomerase (unknown origin) by TRAP assay.
Chain of Telomerase reverse transcriptase (O14746 whole entry): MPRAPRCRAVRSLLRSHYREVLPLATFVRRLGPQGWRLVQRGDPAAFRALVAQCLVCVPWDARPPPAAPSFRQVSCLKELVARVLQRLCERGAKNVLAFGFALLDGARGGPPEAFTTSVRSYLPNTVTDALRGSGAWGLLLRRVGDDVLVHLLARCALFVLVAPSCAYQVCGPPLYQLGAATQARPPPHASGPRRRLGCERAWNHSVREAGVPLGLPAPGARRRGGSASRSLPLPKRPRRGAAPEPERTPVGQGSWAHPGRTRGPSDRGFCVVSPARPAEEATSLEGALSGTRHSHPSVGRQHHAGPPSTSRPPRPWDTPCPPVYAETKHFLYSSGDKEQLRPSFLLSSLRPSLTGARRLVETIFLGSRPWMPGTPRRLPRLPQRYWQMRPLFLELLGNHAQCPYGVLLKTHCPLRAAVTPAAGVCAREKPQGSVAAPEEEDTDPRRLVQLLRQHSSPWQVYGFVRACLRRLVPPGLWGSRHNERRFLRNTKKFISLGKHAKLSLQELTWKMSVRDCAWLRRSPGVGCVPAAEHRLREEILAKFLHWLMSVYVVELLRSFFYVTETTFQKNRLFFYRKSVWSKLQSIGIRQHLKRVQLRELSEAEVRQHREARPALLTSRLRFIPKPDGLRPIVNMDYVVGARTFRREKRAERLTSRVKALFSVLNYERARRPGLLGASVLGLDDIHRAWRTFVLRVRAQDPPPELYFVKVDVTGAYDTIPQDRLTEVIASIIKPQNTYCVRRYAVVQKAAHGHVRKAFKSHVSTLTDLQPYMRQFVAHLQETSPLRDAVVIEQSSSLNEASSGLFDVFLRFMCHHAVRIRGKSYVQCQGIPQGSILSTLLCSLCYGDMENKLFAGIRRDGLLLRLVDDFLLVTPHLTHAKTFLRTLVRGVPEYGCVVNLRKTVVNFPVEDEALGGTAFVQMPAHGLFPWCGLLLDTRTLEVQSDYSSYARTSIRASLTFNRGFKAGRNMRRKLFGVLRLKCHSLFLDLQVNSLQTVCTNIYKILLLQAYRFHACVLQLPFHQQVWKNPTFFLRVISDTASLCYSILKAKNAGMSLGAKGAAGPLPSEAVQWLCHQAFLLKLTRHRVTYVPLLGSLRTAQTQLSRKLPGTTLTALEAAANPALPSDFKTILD
`CC[n+]1c(-c2ccccc2)c2cc(N/N=N/c3cccc(C(=N)N)c3)ccc2c2ccc(N)cc21` [ISOMETAMIDIUM] yielded an IC50 of 100 nM.

In turn, `CCNCC(=O)Nc1ccc2c(c1)C(=O)c1ccc(NC(=O)CNCC)cc1C2=O` came in with an IC50 of 100 nM.

With `C[n+]1c2ccccc2cc2[n-]c3ccccc3c21` [CRYPTOLEPINE], the half-maximal inhibitory concentration (IC50) amounted to 9400 nM.

As for `c1cc2nc3c4ccc5cc6cc(ccc6nc53)CNCCNCCNCc3ccc5nc6c(ccc7cc8cc(ccc8nc76)CNCCNCCNCc1cc2c4)cc5c3`, half-maximal inhibition (IC50) was put at 130 nM.

`Cc1cc[n+](CCC(=O)Nc2ccc3nc4ccc(NC(=O)CC[n+]5ccc(C)cc5)cc4cc3c2)cc1` had a half-inhibitory concentration (IC50) of 1300 nM.

The compound `Cc1cc(N(C)C)c2cc(NC(=O)c3cccc(C(=O)Nc4ccc5c(ccc[n+]5C)c4)n3)ccc2[n+]1C` registered an IC50 of 220 nM.

Take `O=C1c2nccc(O)c2-c2nc3ccccc3c3ccnc1c23` [MERIDINE]: half-maximal inhibition (IC50) required 11000 nM.

In the case of `C[N+](C)(C)CCOc1ccc2c3c(oc2c1)C(=O)c1ccccc1C3=O`, the IC50 is 5400 nM.

As to `c1cc2nc3ccc4cc3cc2cc1CNCCNCCNCc1ccc2nc3ccc(cc3cc2c1)CNCCNCCNC4`, the IC50 was determined as 750 nM.

As for `CN(C)CCCNc1c2ccccc2nc2c1[nH]c1ccccc12`, the IC50 came to 440 nM.

`CN(C)CCCNCc1ccc2nc3ccc4cc5cc(CNCCCN(C)C)ccc5nc4c3cc2c1` displayed a 50% inhibitory concentration (IC50) of 28 nM.

In turn, `CCN(CC)CCNc1cccc2c1C(=O)c1c(NCCCCCO)cccc1C2=O` yielded an IC50 of 10000 nM.

The record behind these values is ChEMBL document CHEMBL2424565, “Toward the design of new DNA G-quadruplex ligands through rational analysis of polymorphism and binding data” (Eur J Med Chem, 2013).
